“Also recorded” adds a separate entry of the source.
Key:
[1] = system: human subjects diagnosed with, or suffering from CF; assay: Example 1: open-label Phase 2 CF study, 160 ppm NO 30 min 3x daily, 5 days/week, 2 weeks; safety monitoring; type: in vivo
Protocol: (§1) NO was administered via inhalation to nine clinically stable human subjects diagnosed with, or suffering from CF from two medical centers. Patients received three daily 30-minute treatments of 160 ppm NO with at least 3.5 hours between treatments, for 5 days per week over a two-weeks time period.
Safety parameters, including NO and nitrogen dioxide (NO2 via NO2^−/NO3^−) concentrations, inhaled fraction of inspired oxygen (FiO2), methemoglobin level (SpMet, or “% MetHb”), and oxyhemoglobin (oxygen) saturation (SpO2 or SaO2), were continuously monitored using a noninvasive pulse-oximetry device RAD-57™ or RAD-87™ by Masimo Irvine, Calif. These devices also monitor Perfusion Index (PI), Respiration Rate (RRa), Total Hemoglobin (SpHb), Carboxyhemoglobin (SpCO), Oxygen Content (SpOC) and Pleth Variability Index (PVI®). Vital signs, including blood pressure, pulse, and respiratory rate were also closely monitored.

nonmucoid P. aeruginosa = assay: Example 1: microbial density in sputum (CFU) during NO inhalation; type: in vivo; details: Patient 4 (CFSCH04)
Protocol: as §1
Preliminary efficacy measures included determination of microbial density in sputum and measurements of forced exhaled volume at 1 second (FEV1). Inflammation associated with C-reactive protein (CRP) levels was assessed as a secondary outcome measure. Other inflammation biomarkers, such as interleukins, were also monitored (data not shown).
Bacterial load was measured for exemplary, non-limiting selection of species that included, P. alcaligenes, methicillin-sensitive Staphylococcus aureus (MSSA), Achromobacter spp., A. fumigates, non-mucoid P. aeruginosa and mucoid P. aeruginosa.

[2] = system: human subjects diagnosed with acute bronchiolitis; assay: Example 3: randomized bronchiolitis study, infants 2-12 months; 160 ppm NO 30 min 5x daily up to 5 days plus O2 vs O2 alone; safety and tolerability; type: in vivo
Text: Eligible subjects were randomized (1:1) to receive intermittent NO and standard treatment with O2 (hereafter referred to as NO treatment) or standard treatment with O2 (hereafter referred to as standard treatment) alone for a treatment period of up to 5 days. During treatment, MetHb and O2 saturation levels were continuously monitored using a dedicated monitor.
In addition to standard supportive O2 treatment which was initiated prior to randomization, subjects in the NO group were given five 30 minute inhalations per day of 160 ppm NO, at intervals of 3 to 4 hours, until subject improvement led to a physician decision of fit to discharge, to a maximum of 25 inhalations over 5 consecutive days. Inhalations were administered via hospital face masks (Hospiltak, Unomedical Inc).
All subjects in the control group were managed with standard supportive O2 treatment in the same way as the active treatment group, but without actual NO administration.
Methemoglobin and O2 saturation levels were also continuously monitored using a dedicated monitor. In the event of MetHb>5% or O2 saturation less than 89%, treatment was temporarily discontinued, and measurement repeated 30 minutes later. If value(s) had returned to within the safety threshold, the next inhalation was started according to protocol. In any case of a second episode of MeHb greater than 5%, study treatment was to be permanently discontinued.
Primary Endpoints—Safety and Tolerability: • Safety: • Determine the MetHb percentage associated with inhaled NO • Determine AEs associated with inhaled NO • Tolerability: • Proportion of subjects (%) who prematurely discontinued the study or study treatment for any reason • Proportion of subjects (%) who prematurely discontinued the study treatment due to AEs

[3] = system: human subjects diagnosed with cystic fibrosis; assay: Example 4: CF study, 160 ppm NO 30 min 3x daily for 10 treatment days; safety; type: in vivo
Protocol: (§2) In addition to their standard care, subjects were administered three 30-minute inhalations per day of 160 ppm NO (with O2/air) for 10 working days (i.e., 5 days on treatment, 2 days off treatment, 5 days on treatment, for a total of 10 treatment days and 30 inhalations).
A minimum time interval of 3.5 hours from the end of one treatment to the beginning of the next treatment was required.
As a safety measure, during NO administration, human subjects' MetHb and 02 saturation levels in the blood were monitored utilizing a commercial “off the shelf” co-oxymeter (Masimo Corporation Model RAD-57/RAD 87).
In the event of MetHb greater than 5% or O2 saturation less than or equal to 88%, treatment was temporarily discontinued, and measure repeated 30 minutes later. If value(s) had returned to above the safety threshold, the next inhalation was started according to protocol. In any case of a second episode of MeHb greater than 5%, study treatment was to be permanently discontinued.
Primary Endpoints—Safety and Tolerability: • Safety • Determine the MetHb levels during treatment with inhaled NO • Determine other AEs associated with inhaled NO • Tolerability • Proportion of subjects (%) who prematurely discontinued the study or study treatment for any reason • Proportion of subjects (%) who prematurely discontinued the study treatment due to AEs or SAEs • Proportion of subjects (%) who prematurely discontinued the study treatment due to AEs or SAEs associated with inhaled NO
All measured variables and derived parameters were listed individually and tabulated by descriptive statistics. For categorical variables, summary tables were provided giving sample size, absolute and relative frequency. For continuous variables, summary tables were provided giving sample size, arithmetic mean, SD, median, minimum and maximum and 95% CI for means of variables. For the ITT cohort, the LOCF approach was applied, when deemed appropriate, to account for missing data at or prior to study termination. Methemoglobin was summarized in appropriate descriptive tables. The percent of subjects with MetHb level greater than 5% was calculated per time point. Changes from baseline in MetHb levels were analyzed using Signed rank test for two means. Laboratory results were summarized in appropriate tables by time. Changes from baseline were calculated and presented as well.

C-reactive protein (CRP) = assay: Example 4: CRP levels over time; type: in vivo, human; details: three subjects with systemic inflammation (CRP greater than 5 mg/L) on Day 1
Protocol: as §2
Secondary Endpoints—Efficacy: • Comparison of FEV1 improvement before and after NO treatment Observational Endpoints: • To determine the reduction in bacterial and fungal sputum load during each week of NO treatment compared to bacterial sputum load before NO treatment • Assess the improvement of lung function indices during and after NO intermittent inhalation treatment as determined by spirometry (i.e., FVC, FEV1, FEV1/FVC, forced expiratory flow 25% to 75% (FEF 25-75)) • Evaluate C-reactive protein (CRP) levels over time • Number of subjects with study drug related bleeding at any time point

[4] = over the study treatment period

## [N]=O [NO, nitric oxide]
[1]; 9 subjects, 10 days of treatment
  Average MetHb levels post treatment (mean±SD): 2.4%
[1]; all 9 subjects
  Oxygen saturation post treatment: more than 92%
[1]; all subjects
  MetHb levels throughout the trial (safety limit): < 5%
[1]; during the study
  Changes in vital signs: no clinically significant changes in vital signs
  Serious adverse events: No serious adverse events
Nonmucoid P. aeruginosa
  decrease in nonmucoid P. aeruginosa counts: 1 log
[2]; after end of 30 min treatment
  Time for MetHb to approach pre-treatment levels: approximately 3 hours
[2]; all randomized
  Completed entire treatment and study duration, % of subjects: 90.5%
  Early discontinuation of study: (0.0%)
  Early discontinuation of study, withdrawal of consent: (0.0%)
  Early discontinuation of treatment due to AE: (4.8%)^(1)
  Early discontinuation of treatment due to SAE: (0.0%)
  Early discontinuation of treatment only: (9.5%)
  Early discontinuation of treatment, Physician/Investigator decision: (4.8%)^(3)
  Subjects that discontinued study treatment or discontinued the study: (9.5%)
[2]; all randomized, listed as NO and Standard Treatment (O2)
  Completed entire treatment and study duration, % of subjects: (90.5%)
[2]; during the study treatment period
  Subjects with any MetHb measurement greater than 5%: 28.6%
[2]; human, in vivo, 160 ppm
  Serious adverse events reported by: 4 subjects
  Subjects reporting at least 1 AE: 47.6%
[2]; in vivo
  Deaths during the study: no deaths
[2]; one subject (Subject 44)
  maximum MetHb: 5.6%
[2]; [4]
  Cumulative effect on MetHb levels: no “cumulative” effect; also recorded: no cumulative effect
[3]; N=9
  AEs of MetHb elevation greater than 5% or NO2 elevation greater than 5 ppm: no AEs
  AEs possibly or probably related to treatment, % of subjects: 22.2%
  Adverse events reported by, % of subjects: 55.5%
  Severe or serious AEs: no severe or serious AEs
  maximum MetHb level: 4.6%
[3]; N=9, 20 events in a single subject (SC-01)
  total AEs reported: 31
[3]; entire study treatment period, N=9
  Subjects with MetHb greater than 5%: no subjects
[3]; in 2 subjects, all events mild
  cases of haemoptysis: 7 cases
[3]; [4]
  Cumulative effect on MetHb levels: no “cumulative” effect; also recorded: no cumulative effect
C-reactive protein (CRP)
  CRP levels from Day 1 to Day 10: decreased

— patent US20170239289A1, “TREATMENT OF INFLAMMATION, RESPIRATORY TRACT INFECTIONS AND CYSTIC FIBROSIS” (Advanced Inhalation Therapies (AIT) Ltd., priority 2014, published 2017)
